Test results as given in patent publication US11466286B2, “Methods and compositions for conferring and/or enhancing herbicide tolerance using protoporphyrinogen oxidase or variant thereof” (FarmHannong Co., Ltd., priority 2016, dated 2022).

Columns and labels:
[1] = test system: PPO-deficient BT3 E. coli (ΔPPO) with A. thaliana PPO1 mutant AtPPO1 SLYM (Y426M, S305L, SEQ ID NO: 7); assay: Growth of transformed BT3 (ΔPPO) on tiafenacil media; assay type: cell-based
Protocol: (§1) After transforming PPO-deficient BT3 E. coli (ΔPPO) with CyPPO10 or CyPPO13, the transformed BT3 (ΔPPO) was cultured on LB agar plates containing PPO-inhibiting herbicide to examine the growth level of the transformed BT3 (ΔPPO). BT3 (ΔPPO) strain was obtained from Hokkaido University (Japan). The BT3 (ΔPPO) strain is deficient in hemG-type PPO and has kanamycin tolerance (refer to “Watanabe et al., Dual targeting of spinach protoporphyrinogen oxidase II to mitochondria and chloroplasts by alternative use of two in-frame […], JBC 2001 276(23):20474-20481; Che et al., Molecular Characterization and Subcellular Localization of Protoporphyrinogen Oxidase in Spinach Chloroplasts, Plant Physiol. 2000 September; 124(1):59-70”).
(§2) For seed culture of E. coli transformed with respective genes, each single colony of E. coli transformant as provided above was cultured in 3 ml of LB broth containing chloramphenicol overnight (220 rpm, 37° C.), and 50 to 100 μl were subcultured in a new 3 ml of LB broth, and they were cultured until absorbance (OD600) became 0.5 to 1, and they were diluted with LB broth to absorbance (OD600) of 0.5. The diluted solution was serially diluted again 5 times by a factor of one tenth with LB broth. […] The LB Agar media were incubated at 37° C., under light condition, and level of inhibiting growth was observed after 16 to 20 hours of incubation.
(§3) Plant physiol. 2003 133:736-747).

[2] = test system: PPO-deficient BT3 E. coli (ΔPPO) with wild type A. thaliana PPO1 (AtPPO1 WT, SEQ ID NO: 5); assay: as above; assay type: cell-based; settings: 100 μM tiafenacil
Protocol: as §1, §2, §3

[3] = test system: CyPPO13 (Synechococcus sp. JA-3-3Ab PPO, SEQ ID NO: 4) variant F373N, MBP fusion; assay: PPO inhibition assay; assay type: biochemical; settings: herbicide 0-5,000 nM, 50 μM substrate
Protocol: (§4) The enzyme activities of PPO protein and PPO protein variants were examined, and inhibition assay by PPO-inhibiting herbicides was conducted. It was confirmed that the PPO protein has low water-solubility, but in case of being expressed as a fusion protein with MBP (maltose binding protein) (MBP-PPO), the PPO protein is able to be stably expressed as water-soluble form. Therefore, the wild type and variant proteins which were expressed in the form of fusion protein with MBP were used in the present test (refer to FIG. 4).
(§5) At first, a substrate of PPO protein, Protoporphyrinogen IX was synthesized. This process was performed in the space where nitrogen gas is streamed. 6 mg of protoporphyrin IX was dissolved in 20% (v/v) EtOH 20 ml, and stirred under dark condition for 30 minutes. The obtained protoporphyrinogen IX solution was put into a 15 ml screw tube in an amount of 800 and flushed with nitrogen gas for 5 minutes. To this, 1 g of sodium amalgam was added and vigorous shaking was performed for 2 minutes. The lid was open to exhaust hydrogen gas in the tube. Thereafter, the lid was closed and incubated for 3 minutes. The […] was filtered using syringe and cellulose membrane filter. To 600 μl of the obtained […], 2M MOPS [3-(N-morpholino)propanesulfonic acid] was added in an amount of approximately 300 thereby adjusting pH to 8.0. To determine the enzyme activity of PPO protein, a reaction mixture was prepared with the following composition (based on 10 ml): 50 mM Tris-Cl (pH 8.0); 50 mM NaCl; 0.04% (v/v) Tween 20; 40 mM glucose (0.072 g); 5 units glucose oxidase (16.6 mg); and 10 units catalase (1 μl).
(§6) Two hundred microliters (200 μl) of reaction mixture containing a purified PPO protein were placed in 96 well plates, and preincubated for 30 min at room temperature to reduce the oxygen concentration by the reaction of glucose oxidase-catalase. The mineral oil was layered and then the reaction was initiated by adding the substrate, […], to a final concentration of 50 μM. The reaction proceeded at room temperature for 30 min and the fluorescence of protoporphyrin IX was measured using Microplate reader (Sense, Hidex) (excitation: 405 nm; emission: 633 nm). To calculate the PPO enzyme activity, protoporphyrinogen IX solution was kept open in the air to oxidize the solution (overnight). To this, 2.7N HCl was added, and the absorbance at 408 nm was measured. A standard curve was generated using standard protoporphyrin IX, and the PPO activity was measured by calibration of protoporphyrin IX using the standard curve of protoporphyrin IX.
(§7) The final concentration of each herbicide was as follows: […]

[4] = test system: CyPPO13 (Synechococcus sp. JA-3-3Ab PPO, SEQ ID NO: 4) variant F373H, MBP fusion; assay: PPO inhibition assay; assay type: biochemical; settings: herbicide 0-5,000 nM, 50 μM substrate
Protocol: as §4, §5, §6, §7

[5] = test system: CyPPO13 (Synechococcus sp. JA-3-3Ab PPO, SEQ ID NO: 4) variant F373L, MBP fusion; assay: PPO inhibition assay; assay type: biochemical; settings: herbicide 0-5,000 nM, 50 μM substrate
Protocol: as §4, §5, §6, §7

[6] = test system: CyPPO13 (Synechococcus sp. JA-3-3Ab PPO, SEQ ID NO: 4) variant F373C, MBP fusion; assay: PPO inhibition assay; assay type: biochemical; settings: herbicide 0-5,000 nM, 50 μM substrate
Protocol: as §4, §5, §6, §7

[7] = test system: CyPPO13 (Synechococcus sp. JA-3-3Ab PPO, SEQ ID NO: 4) variant F373V, MBP fusion; assay: PPO inhibition assay; assay type: biochemical; settings: herbicide 0-5,000 nM, 50 μM substrate
Protocol: as §4, §5, §6, §7

[8] = test system: CyPPO13 (Synechococcus sp. JA-3-3Ab PPO, SEQ ID NO: 4) variant F373T, MBP fusion; assay: PPO inhibition assay; assay type: biochemical; settings: herbicide 0-5,000 nM, 50 μM substrate
Protocol: as §4, §5, §6, §7

COC(=O)CCNC(=O)C(C)Sc1cc(-n2c(=O)cc(C(F)(F)F)n(C)c2=O)c(F)cc1Cl (stereo not drawn) [Tiafenacil]
growth ([1]; 400 μM tiafenacil): hardly grew | growth ([1]; from 100 μM tiafenacil): gradually started to exhibit growth inhibition | growth [2]: did not grow | IC50 [3]: 40 nM | IC50 [4]: 114 nM | IC50 [5]: 141 nM | IC50 [6]: 212 nM | IC50 [7]: 339 nM | IC50 [8]: 818 nM
